Assay results reported in publication PMC4770715, “LIM kinase inhibitors disrupt mitotic microtubule organization and impair tumor cell proliferation” (Oncotarget, 2015).

Tests used:
Experiment in all cases: biochemical
Parameters in all cases: KINOMEscan active-site competition binding, percent of control (100 = no competition)
Details in all cases: competition binding, percent control
NEK4 = NEK4 (Homo sapiens, UniProt P51957)
MARK4 = MARK4 (Homo sapiens, UniProt Q96L34)
RET(M918T) = RET(M918T) (Homo sapiens, UniProt P07949, M918T)
DYRK1B = DYRK1B (Homo sapiens, UniProt Q9Y463)
EIF2AK1 = EIF2AK1 (Homo sapiens, UniProt Q9BQI3)
PKMYT1 = PKMYT1 (Homo sapiens, UniProt Q99640)
CAMK2D = CAMK2D (Homo sapiens, UniProt Q13557)
LRRK2(G2019S) = LRRK2(G2019S) (Homo sapiens, UniProt Q5S007, G2019S)
INSRR = INSRR (Homo sapiens, UniProt P14616)
BRSK2 = BRSK2 (Homo sapiens, UniProt Q8IWQ3)
MYO3B = MYO3B (Homo sapiens, UniProt Q8WXR4)
ROS1 = ROS1 (Homo sapiens, UniProt P08922)
CASK = CASK (Homo sapiens, UniProt O14936)
RIOK2 = RIOK2 (Homo sapiens, UniProt Q9BVS4)
SRC = SRC (Homo sapiens, UniProt P12931)
FGFR2 = FGFR2 (Homo sapiens, UniProt P21802)
BIKE = target: T1, BIKE (Homo sapiens, UniProt Q9NSY1)
T1 construct: gene BMP2K

SYK = SYK (Homo sapiens, UniProt P43405)
AKT1 = AKT1 (Homo sapiens, UniProt P31749)
PCTK2 = target: T2, PCTK2 (Homo sapiens, UniProt Q00537)
T2 construct: gene CDK17

PFTK1 = target: T3, PFTK1 (Homo sapiens, UniProt O94921)
T3 construct: gene CDK14

[1] = target: T4, ABL1(Y253F)-phosphorylated (Homo sapiens, UniProt P00519, Y253F)
T4 construct: phosphorylated

CDC2L1 = target: T5, CDC2L1 (Homo sapiens, UniProt P21127)
T5 construct: gene CDK11B

T3 sequence (O94921 whole entry): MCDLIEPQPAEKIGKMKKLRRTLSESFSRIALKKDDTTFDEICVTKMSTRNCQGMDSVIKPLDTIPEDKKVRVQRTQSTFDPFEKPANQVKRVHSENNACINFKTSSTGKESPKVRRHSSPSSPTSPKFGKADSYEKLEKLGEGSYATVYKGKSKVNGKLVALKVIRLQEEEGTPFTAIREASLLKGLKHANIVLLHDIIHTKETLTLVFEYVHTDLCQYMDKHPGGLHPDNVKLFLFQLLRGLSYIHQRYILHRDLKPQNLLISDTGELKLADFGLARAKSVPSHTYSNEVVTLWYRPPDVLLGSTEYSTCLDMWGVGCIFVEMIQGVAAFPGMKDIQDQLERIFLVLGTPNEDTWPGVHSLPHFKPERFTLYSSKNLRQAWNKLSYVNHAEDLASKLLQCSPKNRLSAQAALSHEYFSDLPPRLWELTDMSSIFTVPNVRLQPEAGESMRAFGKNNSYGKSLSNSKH
SRC, sequence (P12931 whole entry): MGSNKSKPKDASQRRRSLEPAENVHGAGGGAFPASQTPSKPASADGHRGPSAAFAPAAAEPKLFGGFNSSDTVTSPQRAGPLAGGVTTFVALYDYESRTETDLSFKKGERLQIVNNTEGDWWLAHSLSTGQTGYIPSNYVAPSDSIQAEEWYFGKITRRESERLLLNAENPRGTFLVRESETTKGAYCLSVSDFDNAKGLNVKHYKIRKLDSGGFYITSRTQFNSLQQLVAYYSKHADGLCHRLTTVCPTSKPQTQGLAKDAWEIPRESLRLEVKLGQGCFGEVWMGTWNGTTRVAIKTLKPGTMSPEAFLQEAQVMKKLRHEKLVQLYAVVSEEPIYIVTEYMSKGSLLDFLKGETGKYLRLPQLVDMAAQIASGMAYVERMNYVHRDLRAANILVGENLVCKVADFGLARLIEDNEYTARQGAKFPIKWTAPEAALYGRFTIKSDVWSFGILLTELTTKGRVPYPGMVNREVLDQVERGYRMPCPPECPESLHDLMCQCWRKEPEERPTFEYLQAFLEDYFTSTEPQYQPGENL
PKMYT1, sequence (Q99640 whole entry): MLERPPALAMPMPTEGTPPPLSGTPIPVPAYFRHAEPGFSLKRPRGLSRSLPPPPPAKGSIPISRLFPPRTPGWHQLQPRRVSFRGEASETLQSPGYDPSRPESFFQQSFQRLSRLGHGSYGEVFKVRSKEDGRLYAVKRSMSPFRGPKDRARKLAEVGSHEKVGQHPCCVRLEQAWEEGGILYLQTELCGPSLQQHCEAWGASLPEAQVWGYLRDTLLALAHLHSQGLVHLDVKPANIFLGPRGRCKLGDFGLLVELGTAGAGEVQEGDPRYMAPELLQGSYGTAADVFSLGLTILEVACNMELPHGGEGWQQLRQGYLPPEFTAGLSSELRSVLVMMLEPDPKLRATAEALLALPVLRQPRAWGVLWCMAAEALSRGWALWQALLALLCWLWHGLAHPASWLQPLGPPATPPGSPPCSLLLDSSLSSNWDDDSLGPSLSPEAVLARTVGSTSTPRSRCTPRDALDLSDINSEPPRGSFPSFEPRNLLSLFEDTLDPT
ROS1, sequence (P08922 whole entry): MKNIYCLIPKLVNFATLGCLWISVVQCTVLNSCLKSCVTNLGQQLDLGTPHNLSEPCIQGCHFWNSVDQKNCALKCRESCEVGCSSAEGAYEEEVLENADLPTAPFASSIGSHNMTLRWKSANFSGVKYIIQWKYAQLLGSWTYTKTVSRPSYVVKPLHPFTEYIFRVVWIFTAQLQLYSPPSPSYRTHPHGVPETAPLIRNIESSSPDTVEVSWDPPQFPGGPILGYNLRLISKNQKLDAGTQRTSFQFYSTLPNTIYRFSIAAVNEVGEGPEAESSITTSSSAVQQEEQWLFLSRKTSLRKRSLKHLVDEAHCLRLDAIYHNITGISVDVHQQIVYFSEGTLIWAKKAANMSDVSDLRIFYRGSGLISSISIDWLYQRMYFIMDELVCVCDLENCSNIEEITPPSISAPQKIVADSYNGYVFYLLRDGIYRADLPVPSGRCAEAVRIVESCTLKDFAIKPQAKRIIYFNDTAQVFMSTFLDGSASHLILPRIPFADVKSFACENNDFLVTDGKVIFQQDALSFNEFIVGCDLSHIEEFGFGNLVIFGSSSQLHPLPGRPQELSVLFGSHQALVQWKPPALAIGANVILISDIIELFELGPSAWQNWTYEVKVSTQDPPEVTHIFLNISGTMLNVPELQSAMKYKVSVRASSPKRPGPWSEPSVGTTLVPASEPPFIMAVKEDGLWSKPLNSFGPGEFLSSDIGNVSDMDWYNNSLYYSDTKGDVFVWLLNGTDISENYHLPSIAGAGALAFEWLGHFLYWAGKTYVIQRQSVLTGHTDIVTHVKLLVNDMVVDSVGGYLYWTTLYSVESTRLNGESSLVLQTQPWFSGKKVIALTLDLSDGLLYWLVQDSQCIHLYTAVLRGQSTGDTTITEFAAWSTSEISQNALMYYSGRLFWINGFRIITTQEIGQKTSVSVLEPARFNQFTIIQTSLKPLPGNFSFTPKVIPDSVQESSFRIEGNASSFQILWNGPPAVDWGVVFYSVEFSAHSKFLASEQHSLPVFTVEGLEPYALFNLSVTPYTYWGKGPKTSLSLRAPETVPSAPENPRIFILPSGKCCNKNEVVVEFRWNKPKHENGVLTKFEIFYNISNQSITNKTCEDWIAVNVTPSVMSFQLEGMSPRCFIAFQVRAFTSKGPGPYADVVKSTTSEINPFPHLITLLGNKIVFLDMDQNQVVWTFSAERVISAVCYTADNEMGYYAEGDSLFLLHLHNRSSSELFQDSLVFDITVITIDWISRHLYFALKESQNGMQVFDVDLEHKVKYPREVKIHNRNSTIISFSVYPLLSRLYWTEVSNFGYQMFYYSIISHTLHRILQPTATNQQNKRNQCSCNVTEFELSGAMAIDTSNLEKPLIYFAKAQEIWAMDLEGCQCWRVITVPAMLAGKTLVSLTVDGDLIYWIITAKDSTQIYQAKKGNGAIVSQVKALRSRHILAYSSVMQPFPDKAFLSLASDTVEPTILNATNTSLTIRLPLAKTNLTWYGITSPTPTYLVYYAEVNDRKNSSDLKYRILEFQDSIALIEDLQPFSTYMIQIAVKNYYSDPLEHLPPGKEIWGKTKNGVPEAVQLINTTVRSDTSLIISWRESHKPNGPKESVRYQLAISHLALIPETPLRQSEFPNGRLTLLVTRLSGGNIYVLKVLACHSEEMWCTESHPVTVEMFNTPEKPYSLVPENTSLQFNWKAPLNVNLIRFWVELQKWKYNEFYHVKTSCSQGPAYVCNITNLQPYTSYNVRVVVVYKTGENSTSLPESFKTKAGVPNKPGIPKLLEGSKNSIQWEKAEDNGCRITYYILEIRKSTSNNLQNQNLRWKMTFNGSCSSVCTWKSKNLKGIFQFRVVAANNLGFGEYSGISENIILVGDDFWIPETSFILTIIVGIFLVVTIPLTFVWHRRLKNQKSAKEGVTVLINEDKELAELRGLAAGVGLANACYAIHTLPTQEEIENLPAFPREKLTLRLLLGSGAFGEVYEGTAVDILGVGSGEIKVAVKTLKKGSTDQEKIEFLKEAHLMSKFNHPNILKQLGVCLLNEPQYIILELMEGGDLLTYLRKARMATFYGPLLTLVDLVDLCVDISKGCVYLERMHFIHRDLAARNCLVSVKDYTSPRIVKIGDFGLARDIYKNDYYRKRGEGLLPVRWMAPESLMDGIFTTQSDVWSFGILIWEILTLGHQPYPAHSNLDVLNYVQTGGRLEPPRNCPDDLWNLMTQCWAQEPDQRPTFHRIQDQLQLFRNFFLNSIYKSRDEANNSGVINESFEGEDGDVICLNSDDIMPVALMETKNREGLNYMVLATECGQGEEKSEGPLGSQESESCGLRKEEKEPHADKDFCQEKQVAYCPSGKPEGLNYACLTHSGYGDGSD
T1 sequence (Q9NSY1 whole entry): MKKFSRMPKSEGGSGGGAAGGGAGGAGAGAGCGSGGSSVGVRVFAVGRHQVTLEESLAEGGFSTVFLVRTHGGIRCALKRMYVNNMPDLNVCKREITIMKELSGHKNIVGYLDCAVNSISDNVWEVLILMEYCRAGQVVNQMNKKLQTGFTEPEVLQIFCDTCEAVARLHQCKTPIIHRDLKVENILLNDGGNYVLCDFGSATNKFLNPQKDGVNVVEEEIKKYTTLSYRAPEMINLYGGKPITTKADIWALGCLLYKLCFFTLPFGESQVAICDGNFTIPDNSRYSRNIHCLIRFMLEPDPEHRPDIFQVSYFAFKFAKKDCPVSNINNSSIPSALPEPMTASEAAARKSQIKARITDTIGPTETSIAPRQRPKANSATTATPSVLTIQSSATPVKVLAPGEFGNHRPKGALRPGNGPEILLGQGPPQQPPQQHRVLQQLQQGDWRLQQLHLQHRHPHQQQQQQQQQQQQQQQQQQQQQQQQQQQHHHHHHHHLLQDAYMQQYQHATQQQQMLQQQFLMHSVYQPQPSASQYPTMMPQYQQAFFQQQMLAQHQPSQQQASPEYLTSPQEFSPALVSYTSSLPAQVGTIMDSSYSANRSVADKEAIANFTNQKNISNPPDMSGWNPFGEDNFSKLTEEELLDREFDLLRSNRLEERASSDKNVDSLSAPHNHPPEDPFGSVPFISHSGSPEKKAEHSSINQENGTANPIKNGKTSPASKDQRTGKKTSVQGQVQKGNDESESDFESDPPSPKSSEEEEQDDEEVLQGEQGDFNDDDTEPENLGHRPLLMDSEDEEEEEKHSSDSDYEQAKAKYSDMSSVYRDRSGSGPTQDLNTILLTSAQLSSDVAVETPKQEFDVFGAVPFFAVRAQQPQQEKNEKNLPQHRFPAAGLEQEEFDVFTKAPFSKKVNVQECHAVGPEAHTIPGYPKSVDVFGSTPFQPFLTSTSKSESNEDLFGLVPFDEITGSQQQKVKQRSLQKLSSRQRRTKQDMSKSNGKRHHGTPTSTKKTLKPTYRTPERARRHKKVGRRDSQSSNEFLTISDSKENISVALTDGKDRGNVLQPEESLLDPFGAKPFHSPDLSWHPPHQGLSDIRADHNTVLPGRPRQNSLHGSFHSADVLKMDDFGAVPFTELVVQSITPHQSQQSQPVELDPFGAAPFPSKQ

SMILES | remaining binding at 10 µM (NEK4) [%] | remaining binding at 10 µM (MARK4) [%] | remaining binding at 10 µM (RET(M918T)) [%] | remaining binding at 10 µM (DYRK1B) [%] | remaining binding at 10 µM (EIF2AK1) [%] | remaining binding at 10 µM (PKMYT1) [%] | remaining binding at 10 µM (CAMK2D) [%] | remaining binding at 10 µM (LRRK2(G2019S)) [%] | remaining binding at 10 µM (INSRR) [%] | remaining binding at 10 µM (BRSK2) [%] | remaining binding at 10 µM (MYO3B) [%] | remaining binding at 10 µM (ROS1) [%] | remaining binding at 10 µM (CASK) [%] | remaining binding at 10 µM (RIOK2) [%] | remaining binding at 10 µM (SRC) [%] | remaining binding at 10 µM (FGFR2) [%] | remaining binding at 10 µM (BIKE) [%] | remaining binding at 10 µM (SYK) [%] | remaining binding at 10 µM (AKT1) [%] | remaining binding at 10 µM (PCTK2) [%] | further results
COc1ccc(-c2cnccc2-c2cnc(NC(=O)C(C)C)s2)c(C(F)(F)F)c1 [CRT0105446, N-{5-[3-(4-Methoxy-2-trifluoromethyl-phenyl)-pyridin-4-yl]-hiazol-2-yl}-isobutyramide] | 91 | 57 | 91 | 40 | 100 | 100 | 72 | 86 | 96 | 59 | 100 | 100 | 1.2 | 16 | 100 | 100 | 100 | 100 | 100 | 17 | remaining binding at 10 µM (PFTK1): 51%; remaining binding at 10 µM [1]: 89%; remaining binding at 10 µM (CDC2L1): 54%
Cc1ccc(-c2cnccc2-c2cnc(Nc3ccc(O)cc3)s2)c(Cl)c1 [CRT0105950, 4-{5-[3-(2-Chloro-4-methyl-phenyl)-pyridin-4-yl]-thiazol-2-ylamino}-phenol] | 77 | 4 | 0.35 | 5.6 | 97 | 100 | 29 | 56 | 0.15 | 33 | 90 | 100 | 13 | 2 | 82 | 17 | 36 | 100 | 100 | 52 | remaining binding at 10 µM (PFTK1): 47%; remaining binding at 10 µM [1]: 74%; remaining binding at 10 µM (CDC2L1): 71%
